Columns and labels:
[1] = weight loss products; cited from earlier work
mice = test: Locomotor activity (Comprehensive Lab Animal Monitoring System); type: in vivo
Description: FIGS. 16A and 16B are graphs showing x (FIG. 16A) and y (FIG. 16B) direction ambulatory motion for control and celastrol in dark and light cycles. Toxicity was evaluated using Columbus Instruments Comprehensive Lab Animal Monitoring System we have measure the locomotor activity of the animals.
Locomotor activity was also normal in celastrol-treated mice. This is consistent with celastrol not having a toxic effect causing anorexia and weight loss, since the latter would be associated with decreased locomotor activity.
FIGS. 16A and 16B are graphs showing x (FIG. 16A) and y (FIG. 16B) direction ambulatory motion for control and celastrol in dark and light 2 cycles. Toxicity was evaluated using Columbus Instruments Comprehensive Lab Animal Monitoring System we have measure the locomotor activity of the animals.

[2] = system: alanine transaminase (ALT); test: Serum ALT by ELISA; type: in vivo; settings: HFD-fed obese mice; 100 μg/kg i.p., three weeks
Description: (§1) To investigate the effect of celastrol administration on liver function, serum levels of alanine transaminase (ALT) and aspartate transaminase (AST) were measured in mice following three weeks of celastrol treatment (100 μg/kg, i.p.). ALT and AST were measured using an enzyme-linked immunosorbent assay (ELISA) kit (from Bio Scientific).

HFD-fed obese mice [3] = test: Liver and kidney histology (H&E); type: in vivo; settings: 100 μg/kg i.p., three weeks
[4] = system: aspartate transaminase (AST); test: Serum AST by ELISA; type: in vivo; settings: HFD-fed obese mice; 100 μg/kg i.p., three weeks
Description: as §1

lean mice = test: Leptin injection upon acute celastrol treatment, lean mice; type: in vivo; settings: 6-hour time point, leptin 10 mg/kg i.p., DMSO or celastrol 100 μg/kg i.p. pretreatment
Description: (§2) It was therefore hypothesized that celastrol exerts anti-obesity effects through increasing leptin sensitivity in the brains of the HFD-fed obese mice. To test this hypothesis, leptin was administered to celastrol- or vehicle-treated HFD-fed obese animals. To avoid any possible leptin sensitizing effect of weight loss or decreased food intake created by celastrol administration, leptin injections were carried out upon acute celastrol treatment as described below.
(§3) Lean and HFD-fed obese mice were divided into four groups: 1) DMSO+saline, 2) DMSO+leptin, 3) celastrol+saline, and 4) celastrol+leptin (n=3 per group). Mice were injected (i.p.) with 100 μg/kg celastrol or vehicle (DMSO) one hour before dark cycle (day zero). 24 hours later, mice were injected for a second time with celastrol or DMSO (day 1), and all animals were then taken to 24 hour-fasting. On day two, at 21 hours of fasting, mice received a final injection of DMSO or celastrol. 30 minutes prior to dark cycle, at 23.5 hour of fasting, mice received a single i.p. injection of leptin (10 mg/kg, dissolved in saline), or saline. […] 1, 3, 6, 15, and 24-hour food intake and 24-hour body weight changes were recorded (FIG. 7A). […] This is clearly evident when food intake of the celastrol-treated mice is calculated in percent values (FIG. 7B). […]

HFD-fed obese mice [5] = test: Leptin injection upon acute celastrol treatment, HFD-fed obese mice; type: in vivo; settings: leptin 10 mg/kg i.p.
Description: as §2, §3

In the case of `[Cr]` [Chromium], the Safety [1] is listed as “Likely safe”.
With `CC1=C(O)C(=O)C=C2C1=CC=C1[C@@]2(C)CC[C@@]2(C)[C@@H]3C[C@](C)(C(=O)O)CC[C@]3(C)CC[C@]12C` [celastrol] the locomotor activity (mice; celastrol-treated mice) was “normal”, the “x and y direction ambulatory motion counts” value (mice; dark and light cycles, celastrol versus control) was “not significantly different” and the “serum ALT level” value [2] was “decreases”. For the same molecule, the kidney morphology (HFD-fed obese mice [3]) was “no detectable change” and the “serum AST level” value [4] was “decreases”.
For “Conjugated linoleic acid [Conjugated linoleic acid (CLA)]”, the Effectiveness [1] is listed as “Possibly effective” and the Safety [1] is listed as “Possibly safe”.
With “leptin: peptide hormone, afferent signal in a negative feedback loop regulating food intake and body weight” the “decrease in food intake upon leptin injection” value (lean mice) was “approximately 40%”, the “decrease in food intake upon leptin injection” value (HFD-fed obese mice [5]; 6-hour time point, DMSO or celastrol 100 μg/kg i.p. pretreatment) was “approximately 40%” and the “24-hour body weight change” value (HFD-fed obese mice [5]; 24 hour ad libitum feeding after 24-hour fasting, celastrol 100 μg/kg i.p.) was “resistant”.

Source: patent US20150274634A1, “COMPOUNDS FOR THE TREATMENT OF OBESITY AND METHODS OF USE THEREOF” (The Children's Medical Center Corporation, priority 2014, published 2015)
